# Assay results from patent publication US20100227853A1, “INHIBITORS OF CYCLIC AMP PHOSPHODIESTERASES” (Trustees of Boston College, priority 2008, published 2010).
# Experiments:
# PDE7A = PDE7A (Homo sapiens, UniProt Q13946); test: 5FOA growth assay in fission yeast strain expressing PDE7A; format: cell-based; parameters: targets used in the assays are full-length proteins (as opposed to simply the catalytic domain); expressed in transfected cells; host or cells: Schizosaccharomyces pombe, PDE gene integrated in place of cgs2; details: for Composite Z score, PDE7A: high throughput 5FOA growth screen; for EC50: OD600 0.6, read-out: ED50 for 5FOA growth assays, PDE7A
# Summary of the method: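 Fission yeast carrying an fbp1-ura4 reporter were pregrown to exponential phase at 30 °C in EMM with 0–2.5 mM cAMP (or 0.5/1.0 mM cGMP), then moved into 5FOA medium with 100 nl pinned compound (10 mM stocks). Growth was read as OD600 after 48 h at 30 °C and scored as composite Z scores.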
# PDE4B3 = target: T1, PDE4B3 (Mus musculus, UniProt Q8VBU5); test: 5FOA growth assay in fission yeast strain expressing PDE4B3; format: cell-based, Murine; details: for Composite Z score, PDE4B3: high throughput 5FOA growth screen
# T1 construct: targets used in the assays are full-length proteins (as opposed to simply the catalytic domain); expressed in transfected cells; host or cells: Schizosaccharomyces pombe, PDE gene integrated in place of cgs2
# T1 sequence (Q8VBU5 1-721): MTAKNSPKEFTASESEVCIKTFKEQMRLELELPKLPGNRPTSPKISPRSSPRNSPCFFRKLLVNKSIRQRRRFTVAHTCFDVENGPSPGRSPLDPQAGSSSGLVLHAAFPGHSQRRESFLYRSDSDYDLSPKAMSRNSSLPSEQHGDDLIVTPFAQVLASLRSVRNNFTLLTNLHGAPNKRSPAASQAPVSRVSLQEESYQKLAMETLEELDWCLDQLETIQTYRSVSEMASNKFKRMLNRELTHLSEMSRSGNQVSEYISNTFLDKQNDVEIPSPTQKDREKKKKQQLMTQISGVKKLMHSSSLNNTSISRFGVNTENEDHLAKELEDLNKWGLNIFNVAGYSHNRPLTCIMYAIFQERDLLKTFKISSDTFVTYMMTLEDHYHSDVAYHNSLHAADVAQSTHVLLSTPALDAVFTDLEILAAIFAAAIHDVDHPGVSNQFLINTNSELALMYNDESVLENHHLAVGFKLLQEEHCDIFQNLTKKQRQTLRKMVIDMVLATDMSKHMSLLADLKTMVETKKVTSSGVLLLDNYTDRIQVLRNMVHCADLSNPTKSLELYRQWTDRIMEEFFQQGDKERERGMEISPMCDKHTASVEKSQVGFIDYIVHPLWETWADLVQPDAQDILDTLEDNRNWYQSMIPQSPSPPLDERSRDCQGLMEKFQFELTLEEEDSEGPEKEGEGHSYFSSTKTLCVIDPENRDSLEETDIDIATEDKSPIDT
# Summary of the method: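 Fission yeast strains carrying mouse PDE4A1 or PDE4B3 and an fbp1-ura4 reporter were pregrown in EMM with 0.5–2.5 mM cAMP, then seeded at 0.5–4×10^5 cells/ml in 5FOA medium with compound. Growth was read as OD600 after 48 h at 30° C; composite Z scores were derived.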
# PDE7A, sequence (Q13946 whole entry, the tested form may be a part): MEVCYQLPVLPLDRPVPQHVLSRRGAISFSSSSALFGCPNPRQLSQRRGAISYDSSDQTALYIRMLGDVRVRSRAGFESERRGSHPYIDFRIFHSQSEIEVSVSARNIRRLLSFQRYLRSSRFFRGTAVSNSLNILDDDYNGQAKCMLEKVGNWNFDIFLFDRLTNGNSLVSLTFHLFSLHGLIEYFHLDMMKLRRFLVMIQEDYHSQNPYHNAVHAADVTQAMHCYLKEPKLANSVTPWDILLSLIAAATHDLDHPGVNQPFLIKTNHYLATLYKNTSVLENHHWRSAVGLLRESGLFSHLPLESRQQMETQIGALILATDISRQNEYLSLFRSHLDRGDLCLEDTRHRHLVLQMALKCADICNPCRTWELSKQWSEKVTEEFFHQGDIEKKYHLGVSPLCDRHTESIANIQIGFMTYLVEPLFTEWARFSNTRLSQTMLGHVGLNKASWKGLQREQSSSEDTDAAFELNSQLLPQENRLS
SMILES,"Composite Z score, PDE7A (PDE7A)","Composite Z score, PDE4B3 (PDE4B3)",other results
Cc1c(C(=O)Nc2ccc(F)cc2F)sc2ncnc(N(C)c3ccccc3)c12 [Compound 58-9],123.57,78.662,–
Cc1ccc2c(c1)CCC1CC(=O)CC[C@]21C (stereo partly drawn) [Compound 2158J12],–,–,"2 Assay (2 uM), 7A (PDE7A; PDE 7A): 29.01; 1 Assay (20 uM) 7A (PDE7A; PDE 7A): 74.45; 2 Assay (2 uM), 4B3 (PDE4B3; PDE 4B3): 8.18; 1 Assay (20 uM) 4B3 (PDE4B3; PDE 4B3): 37.13"
CCC1CCc2c(sc3ncnc(N4CCOCC4)c23)C1 (stereo not drawn) [BC33],−0.794,42.416,EC50 (PDE7A): > 200 µM
"c1ccc(CCn2c3ccccc3c3nc4ccccc4nc32)cc1 [2019, G03]",–,–,1 Assay (20 uM) 7A (PDE7A; PDE 7A): 4.47 ND ND ND ND; 1 Assay (20 uM) 4B3 (PDE4B3; PDE 4B3): 83.22 ND ND ND ND
"COC(=O)C1=C(C)N(c2ccc(C(C)C)cc2)C(=O)/C1=C\c1ccco1 [2008, 019]",–,–,1 Assay (20 uM) 7A (PDE7A): 2.78 ND ND ND ND; 1 Assay (20 uM) 4B3 (PDE4B3): −2.99 ND ND ND ND
COc1ccc(NC(=O)c2sc3nc(C)nc(N(C)c4ccc(C(C)C)cc4)c3c2C)c(OC)c1 [Compound 2041I04],0.7201,−0.545,–
CCOC(CNc1nc(C)nc2sc3c(c12)CCCC3)OCC [Compound 2040D04],−0.593,4.66,–
CNc1nc(=S)[nH]c2sc3c(c12)CCCC3 [2054 E08],−0.995,0.2798,–
Cc1c(C(=O)NCCC2CCCCC2)sc2ncnc(N3CCCCC3C)c12 (stereo not drawn) [Compound 2040H10],1.3549,−1.056,–
N#Cc1sc2sc(C#N)c(-c3ccco3)c2c1N [Compound 30],–,–,"2 Assay (2 uM), 4B3 (PDE4B3): 5.21; 1 Assay (20 uM) 4B3 (PDE4B3): 4.67"
COc1ccc2c(c1)[C@@]1(C)CCC[C@](C)(CO)C1CC2 (stereo partly drawn) [Compound 2067M03],–,–,"2 Assay (2 uM), 7A (PDE7A; PDE 7A): 8.65; 1 Assay (20 uM) 7A (PDE7A; PDE 7A): 104.31; 2 Assay (2 uM), 4B3 (PDE4B3; PDE 4B3): 19.00; 1 Assay (20 uM) 4B3 (PDE4B3; PDE 4B3): 13.34"
c1nc(NCCCN2CCOCC2)c2c3c(sc2n1)CCCC3 [Compound 2051N22],−0.445,−0.998,–
Cc1ccc2c(c1)c1nc3ccccc3nc1n2C(C)C [Compound 41],–,–,1 Assay (20 uM) 7A (PDE7A; PDE 7A): 0.31; 1 Assay (20 uM) 4B3 (PDE4B3; PDE 4B3): 200.51
"CC(C)Cn1c2ccc(Br)cc2c2nc3ccccc3nc21 [2015, L04]",–,–,1 Assay (20 uM) 7A (PDE7A; PDE 7A): −0.79 ND ND ND ND; 1 Assay (20 uM) 4B3 (PDE4B3; PDE 4B3): 1.17 ND ND ND ND
CCN(CC)c1ncnc2sc(C(=O)N(C)C3CCCCC3)c(C)c12 [Compound 2040J12],−0.165,5.3667,–
CCC(C)NC(=O)c1sc2nc(C)nc(N(C)c3ccc(C(C)C)cc3)c2c1C (stereo not drawn) [Compound 2041K04],−1.377,−0.456,–
Cc1sc2ncnc(Nc3ccccc3)c2c1C [BC64],55.035,0.3426,EC50 (PDE7A): > 200 µM
CCN(CC)c1nc(C)nc2sc(C(=O)N3CCCCCC3)c(C)c12 [Compound 2040N12],−1.037,12.239,–
Cc1nc(N2CCC(C)CC2)c2c(C)c(C(=O)N3CCN(c4ccc(F)cc4)CC3)sc2n1 [Compound 2040N10],0.7021,3.1975,–
c1csc(CCNc2ncnc3sc4c(c23)CCC4)c1 [Compound 2005M12],−0.398,0.0838,–
COc1ccccc1CNC(=O)c1sc2ncnc(N3CCN(c4ccccc4F)CC3)c2c1C [2041 E21],0.5923,−0.408,–
COc1ccc(CCNc2ncnc3sc4c(c23)CCCC4)cc1 [Compound 2012B19],26.421,43.053,–
COc1cc(OC)c(NC(=O)c2sc3ncnc(N4CCCCC4C)c3c2C)cc1Cl (stereo not drawn) [Compound 2040J10],0.6002,1.7278,–
Cc1c(C(=O)NCCC(C)C)sc2ncnc(N3CCOCC3)c12 [Compound 2040F13],−0.598,0.9277,–

SMILES,"Composite Z score, PDE7A (PDE7A)","Composite Z score, PDE4B3 (PDE4B3)",other results
Cc1c(C(=O)N2CCCCCC2)sc2ncnc(N3CCN(c4ccccc4)CC3)c12 [Compound 2041I21],−0.933,7.48,–
"C=CCn1c2ccc(Br)cc2c2nc3ccccc3nc21 [2017, C18]",–,–,1 Assay (20 uM) 7A (PDE7A; PDE 7A): −1.58 ND ND ND ND; 1 Assay (20 uM) 4B3 (PDE4B3; PDE 4B3): 56.91 ND ND ND ND
Cc1cc(C)c(C)c(S(=O)(=O)N2CCN(c3ncnc4sc5c(c34)CCCC5)CC2)c1C [Compound 2012L13],−0.684,−0.543,–
Cc1c(C(=O)Nc2ccc(F)cc2F)sc2ncnc(N3CCC(C)CC3)c12 [BC58],24.881,78.927,–
Cc1nc(NCCc2ccccc2)c2c3c(sc2n1)CCCC3 [Compound 2008G09],0.03,0.0156,–
CCOC(=O)c1ccccc1NC(=O)c1sc2nc(C)nc(N(CC)CC)c2c1C [Compound 2040P12],1.3653,1.0041,–
CCCCN(CC)C(=O)c1sc2ncnc(N3CCN(c4ccc(OC)cc4)CC3)c2c1C [Compound 2007H06],1.5462,0.3145,–
CCN(CC)c1ncnc2sc3c(c12)CCCC3 [BC44],177.31,85.067,–
O=C(/C=C/c1ccccc1)Nc1ncnc2sc3c(c12)CCC3 [Compound 2008K11],0.9074,0.0615,–
"C=Cn1c2ccccc2c2nc3ccccc3nc21 [2033, H06]",–,–,1 Assay (20 uM) 7A (PDE7A; PDE 7A): 0.63 ND ND ND ND; 1 Assay (20 uM) 4B3 (PDE4B3; PDE 4B3): 103.11 ND ND ND ND
"CCc1ccc2c(c1)c1nc3ccccc3nc1n2CC [2015, P06]",–,–,1 Assay (20 uM) 7A (PDE7A; PDE 7A): 1.07 ND ND ND ND; 1 Assay (20 uM) 4B3 (PDE4B3; PDE 4B3): 0.13 ND ND ND ND
CC(C)CC(Nc1ncnc2sc3c(c12)CCC3)C(=O)O (stereo not drawn) [Compound 2012H20],−0.757,0.1698,–
"COC(=O)C1/C(=C/c2cccc(OC)c2O)C(=O)N(c2ccccc2F)C1C (stereo not drawn) [2008, C21]",–,–,1 Assay (20 uM) 7A (PDE7A): −0.08 ND ND ND ND; 1 Assay (20 uM) 4B3 (PDE4B3): 24.16 ND ND ND ND
Cc1c(C(=O)N(C)Cc2ccccc2)sc2ncnc(N3CCN(c4ccccc4)CC3)c12 [Compound 2041G21],−1.371,33.162,–
O=C(Nc1ncnc2sc3c(c12)CCCCC3)c1ccc(F)cc1 [Compound 2012F09],30.877,35.319,–
CCN(CC)c1nc(C)nc2sc(C(=O)Nc3cc(Cl)ccc3OC)c(C)c12 [Compound 2040L12],0.6002,3.2214,–
CCNc1nc(SCC(=O)NC(=O)NCc2ccccc2)nc2sc3c(c12)CCN(C)C3 [Compound 2054N05],0.1836,0.0285,–
OCCNc1ncnc2sc3c(c12)CCCC3 [Compound 2051H22],−0.346,0.936,–
CCNc1nc(SCC(=O)OCC)nc2sc3c(c12)CCC(C)C3 (stereo not drawn) [Compound 2053H16],0.7038,9.0572,–
CCOC(=O)c1sc2nc(Cc3ccccc3)nc(NCCC3CCCCC3)c2c1C [Compound 2040F07],1.5898,5.0875,–
CCOC(=O)c1sc2nc(C)nc(N(C)Cc3ccccc3)c2c1C [Compound 2007L04],0.2354,0.2682,–
"COC(=O)C1=C(C)N(c2ccccc2)/C(=C/c2cccs2)C1=O [2008, K19]",–,–,1 Assay (20 uM) 7A (PDE7A): 2.43 ND ND ND ND; 1 Assay (20 uM) 4B3 (PDE4B3): −0.61 ND ND ND ND
CC1CC(=O)N(c2ncnc3sc4c(c23)CCCC4)N1 (stereo not drawn) [2054 E16],−0.737,0.62,–
"CCCCn1c2ccccc2c2nc3ccccc3nc21 [2013, I20]",–,–,1 Assay (20 uM) 7A (PDE7A; PDE 7A): −0.84 ND ND ND ND; 1 Assay (20 uM) 4B3 (PDE4B3; PDE 4B3): 0.29 ND ND ND ND
